Source: patent publication US9593108B2, “Compounds and methods for antiviral treatment” (PTC Therapeutics, Inc., priority 2009, dated 2017)

What was measured:
[1] = tested on: HCV replicon RNA (GenBank Accession No. AJ242654); experiment: HCV Replicon Assay (replicon RNA reduction and/or Fluc reporter signal); format: cell-based, Hepatitis C virus; settings: Hepatitis C virus, 72 h, replicon-containing cells cultured with test compound for up to 3 days
How it was run: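 Bicistronic replicon-containing cells cultured with compound for up to 3 days, with interferon as positive control. Inhibition quantified by replicon RNA reduction and/or Fluc reporter signal; IC50 values generally derived from replicon RNA reduction.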

SMILES | IC50 [1] [nM] | melting point [°C]
CC(C)NS(=O)(=O)c1ccc(-c2c(C#N)c3cc(Cl)cnc3n2CC2CC2)cc1 [Cpd 1, 4-[5-chloro-3-cyano-1-(cyclopropylmethyl)-1H-pyrrolo[2,3-b]pyridin-2-yl]-N-(propan-2-yl)benzenesulfonamide] | < 500 | 113 to 116
COc1cnc2c(c1)c(C#N)c(-c1ccc(S(=O)(=O)NC(C)C)cc1)n2CC1CC1 [Cpd 2, 4-[3-cyano-1-(cyclopropylmethyl)-5-methoxy-1H-pyrrolo[2,3-b]pyridin-2-yl]-N-(propan-2-yl)benzenesulfonamide] | < 500 | 151 to 153
COc1ccc2c(n1)c(C#N)c(-c1ccc(NS(=O)(=O)C(C)C)cc1)n2CC1CC1 [Cpd 3, N-{4-[3-cyano-1-(cyclopropylmethyl)-5-methoxy-1H-pyrrolo[3,2-b]pyridin-2-yl]phenyl}propane-2-sulfonamide] | < 500 | 230 to 232
CC(C)NS(=O)(=O)c1ccc(-c2c(C#N)c3cc(F)cnc3n2CC2CC2)cc1 [Cpd 4, 4-[3-cyano-1-(cyclopropylmethyl)-5-fluoro-1H-pyrrolo[2,3-b]pyridin-2-yl]-N-(propan-2-yl)benzenesulfonamide] | 2000 to 5000 | 162 to 165
Cc1ccc2c(C#N)c(-c3ccc(S(=O)(=O)NC(C)C)cc3)n(CC3CC3)c2n1 [Cpd 5, 4-[3-cyano-1-(cyclopropylmethyl)-6-methyl-1H-pyrrolo[2,3-b]pyridin-2-yl]-N-(propan-2-yl)benzenesulfonamide] | < 500 | 175 to 177
CC(C)NS(=O)(=O)c1ccc(-c2c(C#N)c3cc(Cl)cnc3n2C2CCC2)cc1 [Cpd 6, 4-(5-chloro-3-cyano-1-cyclobutyl-1H-pyrrolo[2,3-b]pyridin-2-yl)-N-(propan-2-yl)benzenesulfonamide] | < 500 | 172 to 175
CC(C)NS(=O)(=O)c1ccc(-c2c(C#N)c3cccnc3n2C2CCC2)cc1 [Cpd 7, 4-(3-cyano-1-cyclobutyl-1H-pyrrolo[2,3-b]pyridin-2-yl)-N-(propan-2-yl)benzenesulfonamide] | 500 to 2000 | 198 to 200
N#Cc1c(-c2ccc(S(=O)(=O)NC(CF)CF)cc2)n(C2CCC2)c2ncc(Cl)cc12 [Cpd 8, 4-(5-chloro-3-cyano-1-cyclobutyl-1H-pyrrolo[2,3-b]pyridin-2-yl)-N-(1,3-difluoropropan-2-yl)benzenesulfonamide] | 500 to 2000 | 234 to 238
COc1cnc2c(c1)c(C#N)c(-c1ccc(S(=O)(=O)NC(CF)CF)cn1)n2C1CCC1 [Cpd 9, 6-(3-cyano-1-cyclobutyl-5-methoxy-1H-pyrrolo[2,3-b]pyridin-2-yl)-N-(1,3-difluoropropan-2-yl)pyridine-3-sulfonamide] | < 500 | 161 to 163
N#Cc1c(-c2ccc(S(=O)(=O)NC(CF)CF)cn2)n(C2CCCC2)c2ncc(Cl)cc12 [Cpd 10, 6-(5-chloro-3-cyano-1-cyclopentyl-1H-pyrrolo[2,3-b]pyridin-2-yl)-N-(1,3-difluoropropan-2-yl)pyridine-3-sulfonamide] | < 500 | 208 to 209
COc1cnc2c(c1)c(C#N)c(-c1ncc(S(=O)(=O)NC(CF)CF)cn1)n2C1CCC1 [Cpd 11, 2-(3-cyano-1-cyclobutyl-5-methoxy-1H-pyrrolo[2,3-b]pyridin-2-yl)-N-(1,3-difluoropropan-2-yl)pyrimidine-5-sulfonamide] | 500 to 2000 | 194 to 196
N#Cc1c(-c2ccc(S(=O)(=O)NC(CF)CF)cn2)n(C2CCC2)c2ncc(F)cc12 [Cpd 12, 6-(3-cyano-1-cyclobutyl-5-fluoro-1H-pyrrolo[2,3-b]pyridin-2-yl)-N-(1,3-difluoropropan-2-yl)pyridine-3-sulfonamide] | 500 to 2000 | 155 to 157
N#Cc1c(-c2ncc(S(=O)(=O)NC(CF)CF)cn2)n(C2CCC2)c2ncc(Cl)cc12 [Cpd 13, 2-(5-chloro-3-cyano-1-cyclobutyl-1H-pyrrolo[2,3-b]pyridin-2-yl)-N-(1,3-difluoropropan-2-yl)pyrimidine-5-sulfonamide] | < 500 | 199 to 200
N#Cc1c(-c2ccc(S(=O)(=O)NC(CF)CF)cn2)n(C2CCC2)c2ncc(Cl)cc12 [Cpd 14, 6-(5-chloro-3-cyano-1-cyclobutyl-1H-pyrrolo[2,3-b]pyridin-2-yl)-N-(1,3-difluoropropan-2-yl)pyridine-3-sulfonamide] | < 500 | 176 to 178
CSc1cnc2c(c1)c(C(=O)O)c(-c1ccc(S(=O)(=O)NC3(C(F)(F)F)CC3)cc1)n2C1CCC1 [Cpd 390, 1-cyclobutyl-5-(methylsulfanyl)-2-(4-{[1-(trifluoromethyl)cyclopropyl]sulfamoyl}phenyl)-1H-pyrrolo[2,3-b]pyridine-3-carboxylic acid] | 500 to 2000 | 
CNc1cnc2c(c1)c(C#N)c(-c1ccc(S(=O)(=O)N[C@@H](C)C(F)(F)F)cn1)n2C1CCC1 [Cpd 394, 6-[3-cyano-1-cyclobutyl-5-(methylamino)-1H-pyrrolo[2,3-b]pyridin-2-yl]-N-[(2S)-1,1,1-trifluoropropan-2-yl]pyridine-3-sulfonamide] | < 500 | 
N#Cc1c(-c2ccc(S(=O)(=O)NC3(C(F)(F)F)CC3)cc2)n(C2CCC2)c2ncc(C(F)(F)F)cc12 [Cpd 397, 4-[3-cyano-1-cyclobutyl-5-(trifluoromethyl)-1H-pyrrolo[2,3-b]pyridin-2-yl]-N-[1-(trifluoromethyl)cyclopropyl]benzenesulfonamide] | < 500 | 
COc1cnc2c(c1)c(C(N)=O)c(-c1ccc(S(=O)(=O)NC3(C)CC3)cn1)n2C1CCCC1 [Cpd 410, 1-cyclopentyl-5-methoxy-2-{5-[(1-methylcyclopropyl)sulfamoyl]pyridin-2-yl}-1H-pyrrolo[2,3-b]pyridine-3-carboxamide] | 500 to 2000 | 
CC(C)(C)S(=O)(=O)Nc1ccc(-c2c(C(N)=O)c3cc(C(F)(F)F)cnc3n2C2CCCCC2)cc1 [Cpd 445, 2-{4-[(tert-butylsulfonyl)amino]phenyl}-1-cyclohexyl-5-(trifluoromethyl)-1H-pyrrolo[2,3-b]pyridine-3-carboxamide] | < 500 | 
[C-]#[N+]c1cnc(-n2c(-c3ccc(S(=O)(=O)N[C@@H](C)C(F)(F)F)cn3)c(C#N)c3cc(C)cnc32)s1 [Cpd 451, 6-[3-cyano-1-(5-isocyano-1,3-thiazol-2-yl)-5-methyl-1H-pyrrolo[2,3-b]pyridin-2-yl]-N-[(2S)-1,1,1-trifluoropropan-2-yl]pyridine-3-sulfonamide] | < 500 | 
CC(C)(NS(=O)(=O)c1ccc(-c2c(C#N)c3cc(C(F)F)cnc3n2C2CCC2)nc1)C(F)(F)F [Cpd 456, 6-[3-cyano-1-cyclobutyl-5-(difluoromethyl)-1H-pyrrolo[2,3-b]pyridin-2-yl]-N-(1,1,1-trifluoro-2-methylpropan-2-yl)pyridine-3-sulfonamide] | < 500 | 
N#Cc1c(-c2ccc(S(=O)(=O)NC3(C(F)(F)F)CC3)cn2)n(C2CCC2)c2ncc(C(F)F)cc12 [Cpd 457, 6-[3-cyano-1-cyclobutyl-5-(difluoromethyl)-1H-pyrrolo[2,3-b]pyridin-2-yl]-N-[1-(trifluoromethyl)cyclopropyl]pyridine-3-sulfonamide] | < 500 | 
